From the METLIN SMRT retention time set (Domingo-Almenara et al. 2019)

Assay: gradient 5% acetonitrile 3 min, to 50% in 2 min, to 85% in 15 min, held 3 min, 100 µL/min
Settings: column: Zorbax Extend-C18 2.1 x 50 mm; eluents: water / acetonitrile, 0.1% formic acid
Summary of the method: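 Each retention time is based on an adduct peak selected computationally and verified by manual inspection. Measurements used HPLC–quadrupole time-of-flight mass spectrometry in positive and negative ionization mode on mixtures of ~100 pure standards. Chromatography ran on a Zorbax Extend-C18 column (2.1 × 50 mm, 1.8 μm) at 100 μL/min with water and acetonitrile, each containing 0.1% formic acid, and dead and dwell volumes of 40 μL and 900 μL.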

Cc1nc(N2CCN(c3ncccn3)CC2)nc2c1C(=O)CCC2
RP-LC retention time: 886 s

c1ccc(CN2CCCC(OCc3nc(-c4ccncc4)no3)C2)nc1 (stereo not given)
RP-LC retention time: 577 s

Cn1nc(-c2nc(C3CC3)no2)c2c1CCN(C(=O)c1cccc(C(F)(F)F)c1)C2
RP-LC retention time: 906 s

CC(C)Cn1ccc2c(cc(C(=O)Nc3ccccc3Br)n2C)c1=O
RP-LC retention time: 881 s

Cc1ccc(C)c(C(=O)N2CCN(c3cc(C)nc(N4CCOCC4)n3)CC2)c1
RP-LC retention time: 637 s

CCCn1c(C(=O)NCCc2ccc(S(N)(=O)=O)cc2)cc2c(=O)n(C)c(=O)n(C)c21
RP-LC retention time: 631 s

O=C(NCCS(=O)(=O)N1CCc2ccccc2C1)c1ccc([N+](=O)[O-])o1
RP-LC retention time: 752 s

COc1ccc(F)c(F)c1C(=O)c1cnc(NC2CCN(S(C)(=O)=O)CC2)nc1N
RP-LC retention time: 784 s

O=S(=O)(Nc1cccc(F)c1)c1ccc2nncn2c1
RP-LC retention time: 657 s

O=C(O)CNS(=O)(=O)c1cccc2nsnc12
RP-LC retention time: 595 s

CCOC(=O)c1cnc2nc(C)ccc2c1Nc1cccc(Br)c1
RP-LC retention time: 756 s

Cc1cc(C(N)=O)c(C)n1Cc1ccc(F)cc1
RP-LC retention time: 752 s

O=C(Cn1nc(N2CCSCC2)c2ccccc2c1=O)Nc1ccccc1Cl
RP-LC retention time: 979 s

CCCN(CCC)CCc1c[nH]c2ccc(C(N)=O)cc12
RP-LC retention time: 640 s

COc1ccccc1NC(=O)Cn1c(C)cc(-c2nnc(-c3ccc(F)cc3)o2)c1C
RP-LC retention time: 998 s

CC(C)NC(=O)CN1C(=O)CCSc2ccccc21
RP-LC retention time: 708 s

CNC(=O)c1sc2nc(-c3ccccc3)c(NCCCOC)n2c1C
RP-LC retention time: 684 s

Cc1ccc(S(=O)(=O)N2CCC(c3noc(-c4cccc(F)c4)n3)CC2)cc1
RP-LC retention time: 1160 s

O=C(NCc1csc(C2CCCN(C(=O)c3ccccc3F)C2)n1)C1CCC1 (stereo not given)
RP-LC retention time: 727 s

CC(C)n1c(N2CCN(C(=O)COc3ccccc3)CC2)cc(=O)n(C(C)C)c1=O
RP-LC retention time: 855 s

CC(C)n1c(SCC(=O)N(C)C)nnc1-c1ccc2c(c1)OCCCO2
RP-LC retention time: 691 s

Cc1oc2ccn(Cc3ccc(F)cc3)c(=O)c2c1C(=O)NCc1ccc(F)cc1F
RP-LC retention time: 1100 s

COc1ccc(C(C)NC(=O)c2cc(-c3ccccc3)cn2C)cc1OC (stereo not given)
RP-LC retention time: 963 s

Cc1nc(C)c(C(=O)N2CCC(CC(=O)N3CCOCC3)C2)s1 (stereo not given)
RP-LC retention time: 684 s

CC(=O)Nc1cccc2c(C(=O)NC(C)c3ccc(C)cc3C)ccnc12 (stereo not given)
RP-LC retention time: 896 s

Cc1nn(C(C)C(=O)NCCCN2CCOCC2)c(=O)c2nn(-c3ccccc3)c(C)c12 (stereo not given)
RP-LC retention time: 615 s

Cn1nc(-c2nc(-c3cccc(Cl)c3)no2)ccc1=O
RP-LC retention time: 942 s

CN(C(=O)CN(Cc1ccc(Cl)cc1)S(=O)(=O)c1cccnc1)c1ccccc1
RP-LC retention time: 917 s

Cc1cccnc1NC(=O)C1CCN(S(=O)(=O)c2cc(C(=O)N3CCCCCC3)cs2)CC1
RP-LC retention time: 675 s

CC(C)(C)CC(=O)N1CCCC(C(=O)N2CCOCC2)C1 (stereo not given)
RP-LC retention time: 673 s

Cc1ccc(CNC(=O)C2CCN(c3cnn(C)c(=O)c3)C2)o1 (stereo not given)
RP-LC retention time: 641 s

Cc1cc(NCCN(C)C)n2nc(-c3ccccc3)c(C)c2n1
RP-LC retention time: 572 s

Cc1nn(Cc2nc(-c3ccc(NC(=O)c4ccco4)cc3)oc2C)c(C)c1C
RP-LC retention time: 828 s

O=C(Nc1cccc(C(F)(F)F)c1)N1CCN(c2cnn3c(C4CC4)nnc3c2)CC1
RP-LC retention time: 629 s

O=C(NC1CC1)C1CCCN(c2nc3ncn(CC(=O)N4CCc5ccccc5C4)c(=O)c3s2)C1 (stereo not given)
RP-LC retention time: 689 s

CCn1c(=O)sc2cc(S(=O)(=O)N3CCC(C(=O)NCC(C)c4ccccc4)CC3)ccc21 (stereo not given)
RP-LC retention time: 929 s

COCCNC(=O)C1CCN(C(=O)Nc2ccc(NC(=O)Nc3ccccc3)cc2)CC1
RP-LC retention time: 678 s

COc1ccc(NC(=O)N2CC3CN(C)CC(C2)O3)cc1
RP-LC retention time: 560 s

COc1ccc(C(=O)Oc2ccc(/C=C/c3ccncc3)cc2OC)cc1OC
RP-LC retention time: 606 s

CCOC(=O)c1ccccc1NC(=O)CSc1cc(N2CCCC2)ncn1
RP-LC retention time: 914 s

CC(C)(C)c1cc(C(=O)Nc2cccc(C#N)c2)nc2ccnn12
RP-LC retention time: 1170 s

Cc1cccc(NS(=O)(=O)c2cc3n(c2)CCCNC3=O)c1
RP-LC retention time: 652 s

Cc1ccc(NC(=O)C2CCCN(c3ncnc4c3nc3n4CCCCC3)C2)cc1 (stereo not given)
RP-LC retention time: 838 s

COC(=O)CNC(=O)N1CCCC1c1ccc(C)cc1 (stereo not given)
RP-LC retention time: 739 s

CCCCC(=O)NC1=C(C(=O)OC)SCC1
RP-LC retention time: 905 s
